Test results: US7459482B2, “Agent for treatment of cisplatin-resistant cancer” (Dainippon Sumitomo Pharma Co., Ltd., priority 2000, dated 2008)

Tested on: H4-II-E/CDDP cells
Assay: Cell proliferation inhibitory effects after treating for 7 days, WST-1 assay; resistance of H4-II-E/CDDP cells in comparison with H4-II-E cells
Format: cell-based, rat
Conditions: for resistance of H4-II-E/CDDP cells to the drug: H4-II-E/CDDP cells vs H4-II-E cells
Method: Rat hepatic cancer H4-II-E was obtained from Dainippon Pharmaceutical Co., Ltd. The H4-II-E cells were cultured in MEM medium, during which the concentration of CDDP was increased stepwise from 0.1 μg/ml to 1.0 μg/ml over a period of about one year, by which method, the CDDP resistant cell line (H4-II-E/CDDP) was prepared. The cells used in the experiment were those obtained by subculturing in a CDDP-containing MEM medium (CDDP 1.0 μg/ml) in vitro.
The cell proliferation inhibitory effects of cisplatin to H4-II-E cells and H4-II-E/CDDP cells after treating for 7 days were evaluated by WST-1 assay.

Structure (SMILES)	resistance of H4-II-E/CDDP cells in comparison with H4-II-E cells (7 days treatment, WST-1 assay)	resistance of H4-II-E/CDDP cells to the drug
N.N.[Cl][Pt][Cl] [cisplatin, Cisplatin]	about 10 folds	–
COc1cccc2c1C(=O)c1c(O)c3c(c(O)c1C2=O)C[C@@](O)(C(=O)CO)C[C@@H]3O[C@H]1C[C@H](N)[C@H](O)[C@H](C)O1 [doxorubicin]	–	did not show any resistance
COc1cc([C@@H]2c3cc4c(cc3[C@@H](O[C@@H]3O[C@@H]5CO[C@@H](C)O[C@H]5[C@H](O)[C@H]3O)[C@H]3COC(=O)[C@H]23)OCO4)cc(OC)c1O [etoposide]	–	did not show any resistance
